Experimental data: US11517598B2 (priority 2016, dated 2022)

Legend:
[1] = system: VSVΔ51 in various human and mouse cancer cell lines resistant to VSVΔ51 infection; format: cell-based
[2] = system: VSVΔ51 in various human and mouse cancer cell lines; format: cell-based

Sodium orthovanadate was tested, and the “VSVΔ51 infection and viral titer” value [1] was “Comparable results” and the plaque size [2] was “substantially increased plaque size”.
